This data set is described as follows: Degradation of Compound A by hydrolysis. It counts as physicochemical. An excerpt:
In another aspect is an anhydrous pharmaceutical composition and dosage form. Such anhydrous forms can reduce or eliminate degradation of active ingredients in the composition resulting from heat or water exposure. For example, the addition of water (e.g., 5 percent) is widely accepted in the pharmaceutical arts as a means of simulating shelf-life, e.g., long-term storage in order to determine characteristics such as shelf-life or the stability of formulations over time. See, e.g., Jens T. Carstensen, Drug Stability: Principles & Practice, 2d. Ed., Marcel Dekker, NY, N.Y., 1995, pp. 379-80. The effect of water on a formulation can be of great significance since moisture or humidity are commonly encountered during manufacture, handling, packaging, storage, shipment, and use of formulations.

On to `Cc1nc2cccc(N)c2c(=O)n1C1CCC(=O)NC1=O` (stereo not shown) [Compound A, 3-(5-amino-2-methyl-4-oxo-4H-quinazolin-3-yl)-piperidine-2,6-dione], for which the degradation by hydrolysis result is “easily degraded by hydrolysis”.

(Values after patent publication US10064863B2, “Formulations of 3-(5-amino-2-methyl-4-oxo-4H-quinazolin-3-yl)-piperidine-2,6-dione” (Celgene Corporation, priority 2015, dated 2018).)
